Reference: ChEMBL document CHEMBL1201862, “PubChem BioAssay data set” (2004)
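Step 1: Grow cells in 96-well plates. Step 2: Expose to compound for 48 hours at 5 concentrations. Step 3: Interpolate endpoints linearly; if unreached, use highest concentration. GI50 marks 50% less growth.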 Calls of active or inactive are those of the source. Cut-off read from the data, not from the text of the source: active = GI50 up to about 1.1 µM and inactive = higher.

How the values were obtained:
Assay in all cases: DTP human tumour cell line panel, 48 h
SK-OV-3 = tested on: SK-OV-3
DLD-1 = tested on: DLD-1
NCI-H226 = tested on: NCI-H226
LOX IMVI = tested on: LOX IMVI
XF498 = tested on: XF498
SF-268 = tested on: SF-268
RXF 393 = tested on: RXF 393
NCI-H23 = tested on: NCI-H23
ACHN = tested on: ACHN
RPMI-8226 = tested on: RPMI-8226
Malme-3M = tested on: Malme-3M
SNB-75 = tested on: SNB-75
U-251 = tested on: U-251
CCRF-CEM = tested on: CCRF-CEM
NCI-H460 = tested on: NCI-H460
UO-31 = tested on: UO-31
KM12 = tested on: KM12
RXF 631 = tested on: RXF 631
HT-29 = tested on: HT-29
786-0 = tested on: 786-0
LXFL 529 = tested on: LXFL 529
M19-MEL = tested on: M19-MEL
HCT-116 = tested on: HCT-116
OVCAR-8 = tested on: OVCAR-8
SF-295 = tested on: SF-295
UACC-62 = tested on: UACC-62
OVCAR-3 = tested on: OVCAR-3
HCT-15 = tested on: HCT-15
A498 = tested on: A498
EKVX = tested on: EKVX
IGROV-1 = tested on: IGROV-1
KM-20L2 = tested on: KM-20L2
SN12C = tested on: SN12C
COLO 205 = tested on: COLO 205
M14 = tested on: M14
HOP-18 = tested on: HOP-18
SNB-19 = tested on: SNB-19
A549 = tested on: A549
UACC-257 = tested on: UACC-257
K562 = tested on: K562
CAKI-1 = tested on: CAKI-1
HL-60 = tested on: HL-60
DMS-273 = tested on: DMS-273
HOP-92 = tested on: HOP-92
NCI-H522 = tested on: NCI-H522
SW-620 = tested on: SW-620
SR = tested on: SR
OVCAR-5 = tested on: OVCAR-5
SNB-78 = tested on: SNB-78
OVCAR-4 = tested on: OVCAR-4
TK-10 = tested on: TK-10
DMS-114 = tested on: DMS-114
HCC 2998 = tested on: HCC 2998
MOLT-4 = tested on: MOLT-4
HOP-62 = tested on: HOP-62
SK-MEL-28 = tested on: SK-MEL-28
SK-MEL-5 = tested on: SK-MEL-5
SK-MEL-2 = tested on: SK-MEL-2
SF-539 = tested on: SF-539

COC(=O)C(C(=O)C(=O)NC1=C(Cl)C(=O)c2ccccc2C1=O)c1csc(-n2nc(-c3ccccc3)cc2-c2ccccc2)n1 (configuration not stated)
GI50 (SK-OV-3): > 100 µM (inactive) | GI50 (DLD-1): > 100 µM (inactive) | GI50 (NCI-H226): > 100 µM (inactive) | GI50 (LOX IMVI): > 100 µM (inactive) | GI50 (XF498): > 100 µM (inactive) | GI50 (SF-268): 24.3 µM (inactive) | GI50 (RXF 393): 34.7 µM (inactive) | GI50 (NCI-H23): > 100 µM (inactive) | GI50 (ACHN): > 100 µM (inactive) | GI50 (RPMI-8226): > 100 µM (inactive) | GI50 (Malme-3M): 19.1 µM (inactive) | GI50 (SNB-75): 1.65 µM (inactive) | GI50 (U-251): > 100 µM (inactive) | GI50 (CCRF-CEM): 31 µM (inactive) | GI50 (NCI-H460): > 100 µM (inactive) | GI50 (UO-31): 6.08 µM (inactive) | GI50 (KM12): > 100 µM (inactive) | GI50 (RXF 631): > 100 µM (inactive) | GI50 (HT-29): 20.7 µM (inactive) | GI50 (786-0): > 100 µM (inactive) | GI50 (LXFL 529): > 100 µM (inactive) | GI50 (M19-MEL): > 100 µM (inactive) | GI50 (HCT-116): > 100 µM (inactive) | GI50 (OVCAR-8): > 100 µM (inactive) | GI50 (SF-295): > 100 µM (inactive) | GI50 (UACC-62): 44.1 µM (inactive) | GI50 (OVCAR-3): > 100 µM (inactive) | GI50 (HCT-15): > 100 µM | GI50 (A498): > 100 µM (inactive) | GI50 (EKVX): 9.66 µM (inactive) | GI50 (IGROV-1): > 100 µM (inactive) | GI50 (KM-20L2): > 100 µM (inactive) | GI50 (SN12C): > 100 µM (inactive) | GI50 (COLO 205): > 100 µM (inactive) | GI50 (M14): > 100 µM (inactive) | GI50 (HOP-18): 13.1 µM (inactive) | GI50 (SNB-19): > 100 µM (inactive) | GI50 (A549): > 100 µM (inactive) | GI50 (UACC-257): > 100 µM (inactive) | GI50 (K562): 20.9 µM (inactive) | GI50 (CAKI-1): > 100 µM (inactive) | GI50 (HL-60): > 100 µM (inactive) | GI50 (DMS-273): > 100 µM (inactive) | GI50 (HOP-92): > 100 µM (inactive) | GI50 (NCI-H522): > 100 µM (inactive) | GI50 (SW-620): > 100 µM (inactive) | GI50 (SR): > 100 µM (inactive) | GI50 (OVCAR-5): > 100 µM (inactive) | GI50 (SNB-78): > 100 µM (inactive) | GI50 (OVCAR-4): > 100 µM (inactive) | GI50 (TK-10): > 100 µM (inactive) | GI50 (DMS-114): 10.2 µM (inactive) | GI50 (HCC 2998): > 100 µM (inactive) | GI50 (MOLT-4): > 100 µM (inactive) | GI50 (HOP-62): > 100 µM (inactive)

CCCCCCCCCCCCC(Br)C(=O)NCC(N)=O (configuration not stated)
GI50 (SK-MEL-28): 15.2 µM (inactive) | GI50 (SK-OV-3): 41.6 µM (inactive) | GI50 (DLD-1): 12.9 µM (inactive) | GI50 (NCI-H226): 1.67 µM (inactive) | GI50 (LOX IMVI): 12.4 µM (inactive) | GI50 (XF498): 1.37 µM (inactive) | GI50 (SF-268): 3.42 µM (inactive) | GI50 (SK-MEL-5): 4.57 µM (inactive) | GI50 (RXF 393): 3.6 µM (inactive) | GI50 (NCI-H23): 4.51 µM (inactive) | GI50 (ACHN): 15 µM (inactive) | GI50 (Malme-3M): 13.2 µM (inactive) | GI50 (SNB-75): 0.118 µM (active) | GI50 (U-251): 11.6 µM (inactive) | GI50 (CCRF-CEM): 2.45 µM (inactive) | GI50 (NCI-H460): 16 µM (inactive) | GI50 (UO-31): 2.09 µM (inactive) | GI50 (KM12): 14.2 µM (inactive) | GI50 (RXF 631): 3.63 µM (inactive) | GI50 (HT-29): 15.8 µM (inactive) | GI50 (786-0): 6.85 µM (inactive) | GI50 (LXFL 529): 9.91 µM (inactive) | GI50 (M19-MEL): 15 µM (inactive) | GI50 (HCT-116): 1.83 µM (inactive) | GI50 (OVCAR-8): 4.79 µM (inactive) | GI50 (SF-295): 14.3 µM (inactive) | GI50 (UACC-62): 5.86 µM (inactive) | GI50 (OVCAR-3): 15 µM (inactive) | GI50 (HCT-15): 8.87 µM | GI50 (A498): 13.6 µM (inactive) | GI50 (EKVX): 20.6 µM (inactive) | GI50 (IGROV-1): 9.66 µM (inactive) | GI50 (KM-20L2): 20.4 µM (inactive) | GI50 (SN12C): 1.73 µM (inactive) | GI50 (COLO 205): 21.2 µM (inactive) | GI50 (M14): 11.1 µM (inactive) | GI50 (HOP-18): 14.3 µM (inactive) | GI50 (SNB-19): 11.2 µM (inactive) | GI50 (A549): 15.6 µM (inactive) | GI50 (UACC-257): 11.4 µM (inactive) | GI50 (HL-60): 4.57 µM (inactive) | GI50 (DMS-273): 11.7 µM (inactive) | GI50 (HOP-92): 3.7 µM (inactive) | GI50 (NCI-H522): 2.28 µM (inactive) | GI50 (SK-MEL-2): 11.7 µM (inactive) | GI50 (SW-620): 16 µM (inactive) | GI50 (OVCAR-5): 29.4 µM (inactive) | GI50 (SNB-78): 12.4 µM (inactive) | GI50 (OVCAR-4): 3.55 µM (inactive) | GI50 (TK-10): 18.1 µM (inactive) | GI50 (DMS-114): 3.61 µM (inactive) | GI50 (HCC 2998): 16.1 µM (inactive) | GI50 (SF-539): 14.4 µM (inactive) | GI50 (HOP-62): 15 µM (inactive)

O=C1NC(=O)C(CCC(=O)c2ccc3ccccc3c2)C(=O)N1
GI50 (SK-MEL-28): > 100 µM (inactive) | GI50 (SK-OV-3): > 100 µM (inactive) | GI50 (DLD-1): > 100 µM (inactive) | GI50 (NCI-H226): > 100 µM (inactive) | GI50 (LOX IMVI): > 100 µM (inactive) | GI50 (XF498): > 100 µM (inactive) | GI50 (SF-268): > 100 µM (inactive) | GI50 (SK-MEL-5): > 100 µM (inactive) | GI50 (RXF 393): > 100 µM (inactive) | GI50 (NCI-H23): > 100 µM (inactive) | GI50 (ACHN): > 100 µM (inactive) | GI50 (Malme-3M): > 100 µM (inactive) | GI50 (SNB-75): > 100 µM (inactive) | GI50 (U-251): > 100 µM (inactive) | GI50 (CCRF-CEM): > 100 µM (inactive) | GI50 (NCI-H460): > 100 µM (inactive) | GI50 (UO-31): > 100 µM (inactive) | GI50 (KM12): > 100 µM (inactive) | GI50 (RXF 631): > 100 µM (inactive) | GI50 (HT-29): > 100 µM (inactive) | GI50 (786-0): > 100 µM (inactive) | GI50 (LXFL 529): > 100 µM (inactive) | GI50 (M19-MEL): > 100 µM (inactive) | GI50 (HCT-116): > 100 µM (inactive) | GI50 (OVCAR-8): > 100 µM (inactive) | GI50 (SF-295): > 100 µM (inactive) | GI50 (UACC-62): > 100 µM (inactive) | GI50 (OVCAR-3): > 100 µM (inactive) | GI50 (HCT-15): > 100 µM | GI50 (A498): > 100 µM (inactive) | GI50 (EKVX): > 100 µM (inactive) | GI50 (IGROV-1): > 100 µM (inactive) | GI50 (KM-20L2): > 100 µM (inactive) | GI50 (SN12C): > 100 µM (inactive) | GI50 (COLO 205): > 100 µM (inactive) | GI50 (M14): > 100 µM (inactive) | GI50 (HOP-18): > 100 µM (inactive) | GI50 (SNB-19): > 100 µM (inactive) | GI50 (A549): > 100 µM (inactive) | GI50 (UACC-257): > 100 µM (inactive) | GI50 (K562): > 100 µM (inactive) | GI50 (CAKI-1): > 100 µM (inactive) | GI50 (HL-60): > 100 µM (inactive) | GI50 (DMS-273): > 100 µM (inactive) | GI50 (HOP-92): > 100 µM (inactive) | GI50 (NCI-H522): 20.1 µM (inactive) | GI50 (SK-MEL-2): > 100 µM (inactive) | GI50 (SW-620): > 100 µM (inactive) | GI50 (SR): > 100 µM (inactive) | GI50 (OVCAR-5): > 100 µM (inactive) | GI50 (SNB-78): > 100 µM (inactive) | GI50 (OVCAR-4): > 100 µM (inactive) | GI50 (TK-10): > 100 µM (inactive) | GI50 (DMS-114): > 100 µM (inactive) | GI50 (HCC 2998): > 100 µM (inactive) | GI50 (SF-539): > 100 µM (inactive) | GI50 (MOLT-4): > 100 µM (inactive) | GI50 (HOP-62): > 100 µM (inactive)
